Literature values in US11044905B2, “Tablet with an antimycotic agent, medical device and method for preserving harvested corneas” (ALCHILIFE S.R.L., priority 2018, dated 2021).

Conditions: organ culture preservation, 31° C.

- period of effective protection under conditions of use: ≤ 14 days
SMILES: C[C@@H]1[C@H](O)[C@@H](C)/C=C/C=C/C=C/C=C/C=C/C=C/C=C/[C@H](O[C@@H]2O[C@H](C)[C@@H](O)[C@H](N)[C@@H]2O)C[C@@H]2O[C@](O)(C[C@@H](O)C[C@@H](O)[C@H](O)CC[C@@H](O)C[C@@H](O)CC(=O)O[C@H]1C)C[C@H](O)[C@H]2C(=O)O [Amphotericin B]
